{"source": "patent US20180008575A1", "about": "“METHODS OF TREATING BINGE EATING DISORDER” (Neurovance, Inc., priority 2016, published 2018)", "key": {"[1]": {"target": "T1, monoamine oxidase A (MAO A) (Homo sapiens, UniProt P21397)", "T1 sequence (P21397 1-527)": "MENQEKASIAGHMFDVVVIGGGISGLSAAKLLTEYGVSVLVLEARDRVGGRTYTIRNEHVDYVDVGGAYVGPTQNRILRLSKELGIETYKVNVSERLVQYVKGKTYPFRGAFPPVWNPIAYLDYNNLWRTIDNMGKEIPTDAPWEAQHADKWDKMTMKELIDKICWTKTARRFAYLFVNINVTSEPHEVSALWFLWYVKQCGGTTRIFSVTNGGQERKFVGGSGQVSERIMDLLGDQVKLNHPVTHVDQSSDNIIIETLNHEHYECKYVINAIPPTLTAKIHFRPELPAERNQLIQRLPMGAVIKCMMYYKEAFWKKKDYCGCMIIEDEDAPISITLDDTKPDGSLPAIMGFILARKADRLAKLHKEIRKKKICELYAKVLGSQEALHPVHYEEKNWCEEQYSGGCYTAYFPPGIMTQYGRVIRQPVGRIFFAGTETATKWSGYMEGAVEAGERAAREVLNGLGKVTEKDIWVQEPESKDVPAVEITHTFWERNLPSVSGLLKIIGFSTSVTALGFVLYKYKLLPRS", "experiment": "metabolic pathway"}, "[2]": {"target": "serotonin reuptake (5-HT) (Homo sapiens, UniProt P31645)", "sequence (P31645 whole entry)": "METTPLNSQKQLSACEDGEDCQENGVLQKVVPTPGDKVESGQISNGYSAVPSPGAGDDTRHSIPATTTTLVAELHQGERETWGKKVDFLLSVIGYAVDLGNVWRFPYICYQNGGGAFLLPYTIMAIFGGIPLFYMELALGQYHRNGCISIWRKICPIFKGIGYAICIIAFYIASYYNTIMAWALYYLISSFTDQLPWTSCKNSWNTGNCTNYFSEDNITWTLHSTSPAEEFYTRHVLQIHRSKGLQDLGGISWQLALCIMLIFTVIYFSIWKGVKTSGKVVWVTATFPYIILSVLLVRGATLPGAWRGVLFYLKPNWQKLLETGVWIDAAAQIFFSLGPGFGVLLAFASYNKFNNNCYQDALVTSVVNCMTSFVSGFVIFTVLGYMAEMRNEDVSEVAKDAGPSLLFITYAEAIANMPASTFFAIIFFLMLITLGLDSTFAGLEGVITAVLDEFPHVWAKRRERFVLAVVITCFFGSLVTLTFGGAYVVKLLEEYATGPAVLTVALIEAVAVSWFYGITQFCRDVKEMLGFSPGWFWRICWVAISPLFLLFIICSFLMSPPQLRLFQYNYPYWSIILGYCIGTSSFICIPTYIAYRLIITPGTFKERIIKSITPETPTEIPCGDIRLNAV", "experiment": "serotonin reuptake inhibition", "type": "biochemical", "conditions": "fraction of the potency towards NE reuptake"}, "[3]": {"target": "norepinephrine reuptake (NE) (Homo sapiens, UniProt P23975)", "sequence (P23975 whole entry)": "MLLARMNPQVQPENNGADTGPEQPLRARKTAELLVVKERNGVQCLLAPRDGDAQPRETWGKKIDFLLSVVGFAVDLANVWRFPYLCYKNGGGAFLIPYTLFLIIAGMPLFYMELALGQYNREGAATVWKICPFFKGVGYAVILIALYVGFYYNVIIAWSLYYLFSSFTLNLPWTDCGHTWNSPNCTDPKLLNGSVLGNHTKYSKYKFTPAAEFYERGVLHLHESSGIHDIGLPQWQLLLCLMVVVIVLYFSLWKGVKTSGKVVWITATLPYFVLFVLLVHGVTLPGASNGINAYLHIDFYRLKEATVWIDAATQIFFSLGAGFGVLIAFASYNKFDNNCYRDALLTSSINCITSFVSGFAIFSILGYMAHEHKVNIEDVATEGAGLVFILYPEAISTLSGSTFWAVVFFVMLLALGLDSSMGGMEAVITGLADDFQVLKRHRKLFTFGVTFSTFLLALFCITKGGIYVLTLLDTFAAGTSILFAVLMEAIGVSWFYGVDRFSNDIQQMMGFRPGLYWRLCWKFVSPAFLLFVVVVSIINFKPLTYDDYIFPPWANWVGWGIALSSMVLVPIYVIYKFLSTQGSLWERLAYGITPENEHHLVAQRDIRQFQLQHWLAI", "experiment": "norepinephrine reuptake inhibition", "type": "biochemical", "conditions": "unbalanced triple reuptake inhibitor"}, "dopamine reuptake (DA)": {"target": "dopamine reuptake (DA) (Homo sapiens, UniProt Q01959)", "sequence (Q01959 whole entry)": "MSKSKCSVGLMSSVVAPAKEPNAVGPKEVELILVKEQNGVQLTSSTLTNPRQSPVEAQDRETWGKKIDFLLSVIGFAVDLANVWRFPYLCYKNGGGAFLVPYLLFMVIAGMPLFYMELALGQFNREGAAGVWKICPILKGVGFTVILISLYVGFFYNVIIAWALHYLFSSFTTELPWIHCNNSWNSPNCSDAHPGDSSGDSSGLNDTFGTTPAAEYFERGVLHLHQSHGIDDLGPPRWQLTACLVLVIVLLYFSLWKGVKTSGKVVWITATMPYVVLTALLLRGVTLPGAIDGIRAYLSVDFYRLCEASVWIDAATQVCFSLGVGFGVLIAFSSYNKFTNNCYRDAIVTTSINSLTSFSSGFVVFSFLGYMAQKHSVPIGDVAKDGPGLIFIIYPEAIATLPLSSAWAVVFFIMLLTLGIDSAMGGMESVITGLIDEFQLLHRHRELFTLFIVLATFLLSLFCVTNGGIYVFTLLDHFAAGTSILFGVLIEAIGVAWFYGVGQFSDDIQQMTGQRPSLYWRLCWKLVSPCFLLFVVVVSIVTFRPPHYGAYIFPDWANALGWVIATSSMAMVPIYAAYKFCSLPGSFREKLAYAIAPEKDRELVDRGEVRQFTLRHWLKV", "experiment": "dopamine reuptake inhibition", "type": "biochemical", "conditions": "fraction of the potency towards NE reuptake"}}}
{"compound": "c1ccc2cc([C@]34CNC[C@H]3C4)ccc2c1", "note": "[(1R,5S)-1-(naphthalen-2-yl)-3-azabicyclo[3.1.0]hexane]", "values": [{"measurement": "primary metabolising enzyme", "setting": "[1]", "result": "primarily metabolized by monoamine oxidase A (MAO A)"}, {"measurement": "potency towards serotonin reuptake relative to norepinephrine reuptake", "setting": "[2]", "result": "one-fourteenth"}, {"measurement": "potency towards norepinephrine reuptake (relative rank among NE, DA, 5-HT)", "setting": "[3]", "result": "most potency towards norepinephrine reuptake"}, {"measurement": "potency towards dopamine reuptake relative to norepinephrine reuptake", "setting": "dopamine reuptake (DA)", "result": "one-sixth"}]}
